For 65 compounds, inhibition results are on record in ChEMBL document CHEMBL1141870, “Discovery of potent chromen-4-one inhibitors of the DNA-dependent protein kinase (DNA-PK) using a small-molecule library approach” (J Med Chem, 2005).

The target of the assay is DNA-dependent protein kinase catalytic subunit (Homo sapiens, UniProt P78527). The assay can be described thus: Inhibition against DNA-dependent protein kinase receptor at 0.5uM.
DNA-dependent protein kinase catalytic subunit, sequence (P78527 whole entry): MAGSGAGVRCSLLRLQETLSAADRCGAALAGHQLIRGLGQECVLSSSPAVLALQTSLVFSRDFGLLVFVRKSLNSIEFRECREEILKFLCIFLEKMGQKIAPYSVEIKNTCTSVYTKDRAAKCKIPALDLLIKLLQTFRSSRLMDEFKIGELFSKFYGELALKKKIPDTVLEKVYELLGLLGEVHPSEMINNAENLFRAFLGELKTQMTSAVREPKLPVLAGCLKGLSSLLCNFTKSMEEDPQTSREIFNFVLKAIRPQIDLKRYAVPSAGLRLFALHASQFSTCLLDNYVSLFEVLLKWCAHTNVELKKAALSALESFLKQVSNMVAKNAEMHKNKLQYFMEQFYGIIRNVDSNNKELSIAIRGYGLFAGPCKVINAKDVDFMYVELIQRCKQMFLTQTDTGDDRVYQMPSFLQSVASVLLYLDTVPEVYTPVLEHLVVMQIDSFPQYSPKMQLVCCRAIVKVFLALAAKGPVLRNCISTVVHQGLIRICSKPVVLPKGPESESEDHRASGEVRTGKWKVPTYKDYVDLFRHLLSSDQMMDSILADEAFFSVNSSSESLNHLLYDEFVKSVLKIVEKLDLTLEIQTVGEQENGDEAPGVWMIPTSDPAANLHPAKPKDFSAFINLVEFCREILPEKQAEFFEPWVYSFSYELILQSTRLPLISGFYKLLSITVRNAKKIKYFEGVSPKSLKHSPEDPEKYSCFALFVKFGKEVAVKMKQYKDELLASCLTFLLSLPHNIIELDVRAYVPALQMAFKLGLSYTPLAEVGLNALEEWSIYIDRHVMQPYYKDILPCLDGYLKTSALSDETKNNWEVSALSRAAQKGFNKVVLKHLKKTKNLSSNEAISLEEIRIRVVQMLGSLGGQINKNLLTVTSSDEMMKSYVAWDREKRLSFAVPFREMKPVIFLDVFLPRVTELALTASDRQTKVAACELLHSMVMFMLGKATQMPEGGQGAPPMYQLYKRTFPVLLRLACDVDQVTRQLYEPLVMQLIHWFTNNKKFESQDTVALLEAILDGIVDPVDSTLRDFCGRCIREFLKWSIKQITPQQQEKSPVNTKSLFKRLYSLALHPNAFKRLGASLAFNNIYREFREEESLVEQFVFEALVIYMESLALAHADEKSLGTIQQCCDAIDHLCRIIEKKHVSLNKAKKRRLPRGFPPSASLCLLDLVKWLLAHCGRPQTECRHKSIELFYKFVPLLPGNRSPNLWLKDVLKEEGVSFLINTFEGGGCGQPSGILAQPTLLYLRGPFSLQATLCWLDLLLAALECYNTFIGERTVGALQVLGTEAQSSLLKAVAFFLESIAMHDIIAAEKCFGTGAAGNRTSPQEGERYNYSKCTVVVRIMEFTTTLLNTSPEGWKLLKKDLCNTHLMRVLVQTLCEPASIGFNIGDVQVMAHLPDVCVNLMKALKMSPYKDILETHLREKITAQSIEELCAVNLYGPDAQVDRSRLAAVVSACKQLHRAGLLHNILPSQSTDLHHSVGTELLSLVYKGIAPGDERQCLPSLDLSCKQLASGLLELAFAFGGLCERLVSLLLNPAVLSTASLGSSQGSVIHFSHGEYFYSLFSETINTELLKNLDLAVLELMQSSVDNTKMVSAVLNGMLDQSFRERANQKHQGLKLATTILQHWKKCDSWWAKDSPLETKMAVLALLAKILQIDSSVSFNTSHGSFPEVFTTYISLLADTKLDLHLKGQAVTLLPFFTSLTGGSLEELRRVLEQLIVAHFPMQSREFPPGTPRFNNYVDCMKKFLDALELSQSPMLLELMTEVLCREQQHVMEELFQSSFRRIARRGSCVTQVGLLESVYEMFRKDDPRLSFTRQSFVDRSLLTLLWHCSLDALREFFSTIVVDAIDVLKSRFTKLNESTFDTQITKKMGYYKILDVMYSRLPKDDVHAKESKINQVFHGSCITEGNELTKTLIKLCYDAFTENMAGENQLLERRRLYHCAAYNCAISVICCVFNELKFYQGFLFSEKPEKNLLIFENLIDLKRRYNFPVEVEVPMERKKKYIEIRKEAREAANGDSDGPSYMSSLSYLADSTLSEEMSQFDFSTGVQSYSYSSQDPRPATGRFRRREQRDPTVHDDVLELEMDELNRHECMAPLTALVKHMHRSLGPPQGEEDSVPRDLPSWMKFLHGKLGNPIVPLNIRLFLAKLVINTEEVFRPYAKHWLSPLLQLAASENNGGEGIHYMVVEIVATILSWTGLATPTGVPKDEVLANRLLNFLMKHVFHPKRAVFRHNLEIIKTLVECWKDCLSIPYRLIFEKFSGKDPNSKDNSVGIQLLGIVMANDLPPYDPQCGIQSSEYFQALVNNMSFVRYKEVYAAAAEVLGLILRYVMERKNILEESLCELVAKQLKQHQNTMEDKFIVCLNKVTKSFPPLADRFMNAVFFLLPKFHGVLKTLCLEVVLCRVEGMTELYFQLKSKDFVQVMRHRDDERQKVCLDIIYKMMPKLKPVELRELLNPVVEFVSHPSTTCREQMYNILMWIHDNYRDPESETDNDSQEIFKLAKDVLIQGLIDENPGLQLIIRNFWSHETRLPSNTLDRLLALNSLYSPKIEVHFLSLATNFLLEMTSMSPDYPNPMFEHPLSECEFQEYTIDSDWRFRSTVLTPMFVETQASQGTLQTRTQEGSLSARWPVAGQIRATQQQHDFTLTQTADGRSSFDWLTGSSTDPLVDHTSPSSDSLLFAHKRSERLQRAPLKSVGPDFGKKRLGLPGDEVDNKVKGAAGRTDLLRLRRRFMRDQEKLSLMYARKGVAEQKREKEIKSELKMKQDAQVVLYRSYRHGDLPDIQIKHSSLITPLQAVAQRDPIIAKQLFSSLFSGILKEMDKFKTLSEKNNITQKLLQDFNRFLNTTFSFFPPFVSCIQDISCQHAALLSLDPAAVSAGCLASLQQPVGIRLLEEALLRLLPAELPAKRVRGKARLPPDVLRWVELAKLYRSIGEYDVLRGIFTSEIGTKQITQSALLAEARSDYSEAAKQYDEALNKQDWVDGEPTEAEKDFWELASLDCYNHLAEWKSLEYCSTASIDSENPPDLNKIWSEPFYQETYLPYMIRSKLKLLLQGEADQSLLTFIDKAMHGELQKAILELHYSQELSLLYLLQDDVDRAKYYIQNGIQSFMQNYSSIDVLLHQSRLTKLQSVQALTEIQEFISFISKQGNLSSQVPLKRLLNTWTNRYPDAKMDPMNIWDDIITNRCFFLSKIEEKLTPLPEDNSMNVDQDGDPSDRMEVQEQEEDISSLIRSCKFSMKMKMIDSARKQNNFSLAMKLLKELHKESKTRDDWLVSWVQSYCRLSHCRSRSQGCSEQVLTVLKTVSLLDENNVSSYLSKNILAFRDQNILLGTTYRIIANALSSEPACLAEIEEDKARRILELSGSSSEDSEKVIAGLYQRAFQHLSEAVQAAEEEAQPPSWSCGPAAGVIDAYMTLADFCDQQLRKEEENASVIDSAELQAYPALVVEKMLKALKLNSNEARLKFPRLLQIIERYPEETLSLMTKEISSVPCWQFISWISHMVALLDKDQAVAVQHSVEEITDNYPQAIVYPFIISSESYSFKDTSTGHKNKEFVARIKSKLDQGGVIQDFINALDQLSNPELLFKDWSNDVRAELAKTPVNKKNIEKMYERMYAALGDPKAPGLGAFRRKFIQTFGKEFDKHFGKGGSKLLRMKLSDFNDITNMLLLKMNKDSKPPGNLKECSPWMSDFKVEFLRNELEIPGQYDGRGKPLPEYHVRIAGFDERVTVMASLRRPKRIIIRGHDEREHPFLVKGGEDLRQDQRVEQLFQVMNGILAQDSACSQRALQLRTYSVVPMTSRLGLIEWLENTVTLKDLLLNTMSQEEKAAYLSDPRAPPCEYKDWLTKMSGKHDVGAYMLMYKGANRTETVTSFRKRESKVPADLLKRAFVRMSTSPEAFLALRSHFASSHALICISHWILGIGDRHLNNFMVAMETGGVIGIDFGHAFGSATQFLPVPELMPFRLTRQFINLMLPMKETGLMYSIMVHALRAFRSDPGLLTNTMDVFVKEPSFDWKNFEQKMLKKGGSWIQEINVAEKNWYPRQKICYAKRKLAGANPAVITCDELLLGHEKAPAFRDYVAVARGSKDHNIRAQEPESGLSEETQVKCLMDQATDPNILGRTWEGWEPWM
What is called inhibition is the share of the control response that was lost under treatment. `O=c1cc(N2CCOCC2)oc2ccc(-c3cccs3)cc12` came in with an inhibition of 43%.

As for `COc1ccc(-c2ccc3c(=O)cc(N4CCOCC4)oc3c2)cc1`, the inhibition stood at 22%.

In the case of `O=c1cc(N2CCOCC2)oc2ccc(-c3ccc(Cl)cc3)cc12`, the inhibition turned out to be 6%.

On to `O=c1cc(N2CCOCC2)oc2ccc(-c3cc(C(F)(F)F)cc(C(F)(F)F)c3)cc12`, for which the inhibition came out at 13%.

Regarding `O=c1cc(N2CCOCC2)oc2ccc(-c3cccc4c3oc3ccccc34)cc12`, the inhibition was determined as 37%.

As for `O=c1cc(N2CCOCC2)oc2cc(-c3ccccc3-c3ccccc3)ccc12`, the inhibition amounted to 25%.

`COC(=O)/C=C/c1ccc(-c2ccc3c(=O)cc(N4CCOCC4)oc3c2)cc1` yielded an inhibition of 14%.

Take `O=c1cc(N2CCOCC2)oc2cc(-c3ccccc3CO)ccc12`: the inhibition amounted to 15%.

`Cc1ccc(-c2ccc3oc(N4CCOCC4)cc(=O)c3c2)c2ccccc12`: the inhibition came out at 25%.

In the case of `CC(=O)c1ccccc1-c1ccc2c(=O)cc(N3CCOCC3)oc2c1`, the inhibition amounted to 26%.

Compound `O=c1cc(N2CCOCC2)oc2cc(-c3ccccc3OCc3ccccc3)ccc12` had an inhibition of 30%.

Compound `O=c1cc(N2CCOCC2)oc2cc(-c3ccc(Cl)cc3)ccc12` displayed an inhibition of 4%.

In turn, `O=c1cc(N2CCOCC2)oc2cc(-c3cccc(OC(F)(F)F)c3)ccc12` came in with an inhibition of 20%.

As to `COC(=O)/C=C/c1cccc(-c2ccc3c(=O)cc(N4CCOCC4)oc3c2)c1`, the inhibition came to 34%.

In the case of `COC(=O)c1ccccc1-c1ccc2oc(N3CCOCC3)cc(=O)c2c1`, the inhibition worked out at 30%.

In the case of `O=c1cc(N2CCOCC2)oc2ccc(-c3ccccc3CO)cc12`, the inhibition was determined as 48%.

Regarding `O=C1c2ccccc2C(=O)N1Cc1ccc(-c2ccc3oc(N4CCOCC4)cc(=O)c3c2)cc1`, the inhibition worked out at 49%.

Compound `CC(=O)c1ccccc1-c1ccc2oc(N3CCOCC3)cc(=O)c2c1` returned an inhibition of 61%.

On to `O=c1cc(N2CCOCC2)oc2ccc(-c3ccc(OC(F)(F)F)cc3)cc12`, for which the inhibition was 19%.

Compound `N#Cc1ccc(-c2ccc3oc(N4CCOCC4)cc(=O)c3c2)cc1` had an inhibition of 37%.

As for `COC(=O)/C=C\c1ccccc1-c1ccc2oc(N3CCOCC3)cc(=O)c2c1`, the inhibition is 63%.

Compound `O=c1cc(N2CCOCC2)oc2ccc(-c3ccc4ccccc4c3)cc12` registered an inhibition of 4%.

As for `NC(=O)c1ccccc1-c1ccc2oc(N3CCOCC3)cc(=O)c2c1`, the inhibition is 43%.

`O=c1cc(N2CCOCC2)oc2ccc(-c3ccc4ncccc4c3)cc12` returned an inhibition of 13%.

Regarding `O=c1cc(N2CCOCC2)oc2ccc(-c3ccccc3C(F)(F)F)cc12`, the inhibition was determined as 7%.

The compound `O=c1cc(N2CCOCC2)oc2ccc(-c3ccccc3OCc3ccccc3)cc12` gave an inhibition of 40%.

`CC(=O)Nc1ccccc1-c1ccc2c(=O)cc(N3CCOCC3)oc2c1`: the inhibition stood at 21%.

Regarding `CC(C)(C)c1ccccc1-c1ccc2c(=O)cc(N3CCOCC3)oc2c1`, the inhibition worked out at 20%.

As to `O=c1cc(N2CCOCC2)oc2ccc(-c3cccc(CO)c3)cc12`, the inhibition worked out at 51%.

Compound `O=c1cc(N2CCOCC2)oc2ccc(/C=C/c3ccc(F)cc3)cc12` showed an inhibition of 57%.

`O=c1cc(N2CCOCC2)oc2ccc(-c3cccc4c3sc3ccccc34)cc12` gave an inhibition of 14%.

`CC(=O)Nc1ccccc1-c1ccc2oc(N3CCOCC3)cc(=O)c2c1`: the inhibition was 60%.

The compound `O=c1cc(N2CCOCC2)oc2ccc(-c3ccccc3-c3ccccc3)cc12` yielded an inhibition of 56%.

`COC(=O)c1ccc(-c2ccc3oc(N4CCOCC4)cc(=O)c3c2)cc1` showed an inhibition of 16%.

In turn, `O=c1cc(N2CCOCC2)oc2cc(-c3cccc(O)c3)ccc12` showed an inhibition of 33%.

Regarding `O=c1cc(N2CCOCC2)oc2ccc(-c3ccc(CO)cc3)cc12`, the inhibition turned out to be 58%.

Compound `O=c1cc(N2CCOCC2)oc2ccc(-c3ccc4[nH]ccc4c3)cc12` had an inhibition of 17%.

Compound `N#Cc1ccc(-c2ccc3c(=O)cc(N4CCOCC4)oc3c2)cc1` gave an inhibition of 29%.

Take `O=c1cc(N2CCOCC2)oc2ccc(-c3cccc4c3Sc3ccccc3S4)cc12`: the inhibition amounted to 55%.

`O=c1cc(N2CCOCC2)oc2cc(-c3ccc(O)cc3)ccc12` displayed an inhibition of 22%.

As for `CC(=O)Nc1ccc(-c2ccc3c(=O)cc(N4CCOCC4)oc3c2)cc1`, the inhibition came out at 20%.

`COC(=O)/C=C/c1cccc(-c2ccc3oc(N4CCOCC4)cc(=O)c3c2)c1` registered an inhibition of 76%.

In turn, `O=c1cc(N2CCOCC2)oc2cc(-c3ccc(-c4ccccc4)cc3)ccc12` displayed an inhibition of 35%.

For `COC(=O)c1ccccc1-c1ccc2c(=O)cc(N3CCOCC3)oc2c1`, the inhibition stood at 30%.

As to `CC(=O)c1cccc(-c2ccc3oc(N4CCOCC4)cc(=O)c3c2)c1`, the inhibition came to 46%.

`O=C(OCc1ccccc1)c1ccc(-c2ccc3c(=O)cc(N4CCOCC4)oc3c2)cc1` came in with an inhibition of 24%.

As for `O=c1cc(N2CCOCC2)oc2ccc(-c3cccc(O)c3)cc12`, the inhibition turned out to be 56%.

Turning to `O=c1cc(N2CCOCC2)oc2ccc(-c3csc4ccccc34)cc12`, the inhibition was determined as 50%.

In turn, `O=c1cc(N2CCOCC2)oc2ccc(-c3cccc(OCc4ccccc4)c3)cc12` showed an inhibition of 35%.

Turning to `O=c1cc(N2CCOCC2)oc2ccc(-c3cccc4ccccc34)cc12`, the inhibition was found to be 52%.

With `O=c1cc(N2CCOCC2)oc2cc(-c3ccc(OC(F)(F)F)cc3)ccc12`, the inhibition came out at 39%.

Compound `O=c1cc(N2CCOCC2)oc2ccc(-c3ccc(O)cc3)cc12` gave an inhibition of 57%.

In turn, `CC(=O)c1cccc(-c2ccc3c(=O)cc(N4CCOCC4)oc3c2)c1` gave an inhibition of 6%.

Regarding `O=c1cc(N2CCOCC2)oc2ccc(-c3ccsc3)cc12`, the inhibition is 42%.

Take `O=C(OCc1ccccc1)c1ccc(-c2ccc3oc(N4CCOCC4)cc(=O)c3c2)cc1`: the inhibition was determined as 31%.

`O=c1cc(N2CCOCC2)oc2ccc(-c3ccco3)cc12` gave an inhibition of 14%.

Consider `Nc1ccc(-c2ccc3c(=O)cc(N4CCOCC4)oc3c2)cc1`, for which the inhibition worked out at 31%.

The compound `COc1ccc(-c2ccc3oc(N4CCOCC4)cc(=O)c3c2)cc1` came in with an inhibition of 57%.

`O=c1cc(N2CCOCC2)oc2cc(-c3cccc(CO)c3)ccc12` yielded an inhibition of 16%.

As to `O=C1c2ccccc2C(=O)N1Cc1cccc(-c2ccc3oc(N4CCOCC4)cc(=O)c3c2)c1`, the inhibition amounted to 55%.

For the compound `CC(=O)Nc1cccc(-c2ccc3oc(N4CCOCC4)cc(=O)c3c2)c1`, the inhibition came to 37%.

`O=c1cc(N2CCOCC2)oc2cc(-c3ccc(CO)cc3)ccc12`: the inhibition worked out at 35%.

For `O=c1cc(N2CCOCC2)oc2ccc(/C=C/c3ccccc3)cc12`, the inhibition came to 6%.

On to `O=c1cc(N2CCOCC2)oc2cc(-c3cccc(OCc4ccccc4)c3)ccc12`, for which the inhibition amounted to 29%.

`CC(=O)Nc1cccc(-c2ccc3c(=O)cc(N4CCOCC4)oc3c2)c1` displayed an inhibition of 28%.
